Patent US20260083130A1, “NOVEL SULFONATE BENZAMIDE COMPOUNDS FOR CONTROLLING INVERTEBRATE PESTS” (FMC CORPORATION, priority 2022, published 2026)

Experiments:
Type in all cases: in vivo
[1] = test system: cotton melon aphid (Aphis gossypii (Glover)); test: Test E: control of cotton melon aphid, spray on okra plant; settings: 144 h, assessed after 6 days
Protocol: (§1) Test compounds were formulated using a solution containing 10% acetone, 90% water and 300 ppm Activator 90® non-ionic surfactant (Loveland Products, Loveland, Colorado, USA). The formulated compounds were applied in 1 mL of liquid through an atomized nozzle positioned 1.27 cm (0.5 inches) above the top of each test unit. Test compounds were sprayed at the rates indicated, and each test was replicated three times.
For evaluating control of cotton melon aphid (Aphis gossypii (Glover)) through contact and/or systemic means, the test unit consisted of a small open container with a 5-day-old okra plant inside. This was pre-infested with 30-40 insects on a piece of leaf according to the cut-leaf method, and the soil of the test unit was covered with a layer of sand.
Test compounds were formulated and sprayed at 250, 50, 10, and 2 ppm with three replications as described above. After spraying, the test units were maintained in a growth chamber for 6 days at 19° C. and 70% relative humidity. Each test unit was then visually assessed for insect mortality.

[2] = test system: Green Peach Aphid (Myzus persicae (Sulzer)); test: Test D: control of Green Peach Aphid, spray on radish plant; settings: 144 h, sprayed at 250 ppm, assessed after 6 days
Protocol: as §1
For evaluating control of Green Peach Aphid (Myzus persicae (Sulzer)) through contact and/or systemic means, the test unit consisted of a small open container with a 12- to 15-day-old radish plant inside. Prior to compound application, each test unit was pre-infested by placing on a leaf of the test plant 30-40 aphids on a piece of leaf excised from a culture plant (cut-leaf method). The aphids moved onto the test plant as the leaf piece desiccated. After pre-infestation, the soil of the test unit was covered with a layer of sand.
Test compounds were formulated and sprayed at 250 and 50 ppm with three replications as described above. After spraying of the formulated test compound, each test unit was allowed to dry for 1 hour and then a black, screened cap was placed on top. The test units were held for 6 days in a growth chamber at 19-21° C. and 50-70% relative humidity. Each test unit was then visually assessed for insect mortality.

[3] = test system: Corn Planthopper (Peregrinus maidis (Ashmead)); test: Test C: control of Corn Planthopper, spray on corn plant; settings: 144 h, nymphs, assessed after 6 days
Protocol: as §1
For evaluating control of Corn Planthopper (Peregrinus maidis (Ashmead)) through contact and/or systemic means, the test unit consisted of a small open container with a 3- to 4-day-old corn (maize) plant inside. White sand was added to the top of the soil prior to application of the test compound.
Test compounds were formulated and sprayed at 250 and 50 ppm with three replications as described above. After spraying of the formulated test compound, the test units were allowed to dry for 1 h before they were post-infested with ˜15-20 nymphs (18-to-21-day-old). A black, screened cap was placed on the top of each test unit, and the test units were held for 6 days in a growth chamber at 22 to 24° C. and 50-70% relative humidity. Each test unit was then visually assessed for insect mortality.

CC(c1ncnn1-c1ncccn1)N(C)C(=O)c1cc(Cl)cc(OS(=O)(=O)C(F)(F)F)c1 (stereo not shown) [Compound 72]
≥ 80%: mortality at 2 ppm ([1]; sprayed at 2 ppm) | mortality at 10 ppm ([1]; sprayed at 10 ppm) | mortality at 50 ppm ([1]; sprayed at 50 ppm, read-out: mortality) | mortality at 250 ppm ([1]; sprayed at 250 ppm, read-out: mortality) | mortality at 250 ppm [2] | mortality at 50 ppm ([3]; sprayed at 50 ppm) | mortality at 250 ppm ([3]; sprayed at 250 ppm)
